Data reported in PubChem BioAssay (NCI).
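Compound exposure: 48 hours, 5 concentrations, 96-well plates. Here, GI50 denotes the concentration required for 50% inhibition of growth. TGI denotes the concentration required for complete inhibition of growth.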

Experiments:
Assay in all cases: NCI anticancer screen, dose series, 48 h
LOX IMVI melanoma = system: LOX IMVI melanoma
HOP-62 NSCLC = system: HOP-62 NSCLC
SF-295 CNS = system: SF-295 CNS
SK-OV-3 ovarian = system: SK-OV-3 ovarian
IGROV1 ovarian = system: IGROV1 ovarian
786-0 renal = system: 786-0 renal
UO-31 renal = system: UO-31 renal
HL-60(TB) leukemia = system: HL-60(TB) leukemia
SW-620 colon = system: SW-620 colon
UACC-62 melanoma = system: UACC-62 melanoma
MOLT-4 leukemia = system: MOLT-4 leukemia
NCI-H23 lung = system: NCI-H23 lung
KM20L2 colon = system: KM20L2 colon
OVCAR-4 ovarian = system: OVCAR-4 ovarian
K-562 leukemia = system: K-562 leukemia
OVCAR-3 ovarian = system: OVCAR-3 ovarian
NCI-H226 lung = system: NCI-H226 lung
HCT-15 colon = system: HCT-15 colon
OVCAR-8 ovarian = system: OVCAR-8 ovarian
SN12C renal = system: SN12C renal
SNB-75 CNS = system: SNB-75 CNS
EKVX NSCLC = system: EKVX NSCLC
ACHN renal = system: ACHN renal
SK-MEL-2 melanoma = system: SK-MEL-2 melanoma
SF-539 CNS = system: SF-539 CNS
RPMI-8226 leukemia = system: RPMI-8226 leukemia
OVCAR-5 ovarian = system: OVCAR-5 ovarian
HCT-116 colon = system: HCT-116 colon
KM12 colon = system: KM12 colon
SK-MEL-5 melanoma = system: SK-MEL-5 melanoma
UACC-257 melanoma = system: UACC-257 melanoma
M14 melanoma = system: M14 melanoma
A549 NSCLC = system: A549 NSCLC
MALME-3M melanoma = system: MALME-3M melanoma
COLO 205 colon = system: COLO 205 colon
U251 CNS = system: U251 CNS
TK-10 renal = system: TK-10 renal
HT29 colon = system: HT29 colon
CAKI-1 renal = system: CAKI-1 renal
NCI-H522 lung = system: NCI-H522 lung
HCC-2998 colon = system: HCC-2998 colon
SK-MEL-28 melanoma = system: SK-MEL-28 melanoma
HOP-92 NSCLC = system: HOP-92 NSCLC
SF-268 CNS = system: SF-268 CNS
SNB-19 CNS = system: SNB-19 CNS

## CC(=O)[C-](C(C)=O)c1ccccc1.CC(=O)[C-](C(C)=O)c1ccccc1.CC[O-].CC[O-].[Ti+4]
LOX IMVI melanoma
  GI50: > 100 µM
  TGI: > 100 µM
HOP-62 NSCLC
  GI50: > 100 µM
  TGI: > 100 µM
SF-295 CNS
  GI50: > 100 µM
  TGI: > 100 µM
SK-OV-3 ovarian
  GI50: > 100 µM
  TGI: > 100 µM
IGROV1 ovarian
  GI50: > 100 µM
  TGI: > 100 µM
786-0 renal
  GI50: > 100 µM
  TGI: > 100 µM
UO-31 renal
  GI50: > 100 µM
  TGI: > 100 µM
HL-60(TB) leukemia
  GI50: > 100 µM
  TGI: > 100 µM
SW-620 colon
  GI50: > 100 µM
  TGI: > 100 µM
UACC-62 melanoma
  GI50: > 100 µM
  TGI: > 100 µM
MOLT-4 leukemia
  GI50: > 100 µM
  TGI: > 100 µM
NCI-H23 lung
  GI50: > 100 µM
  TGI: > 100 µM
KM20L2 colon
  GI50: > 100 µM
  TGI: > 100 µM
OVCAR-4 ovarian
  GI50: > 100 µM
  TGI: > 100 µM
K-562 leukemia
  GI50: > 100 µM
  TGI: > 100 µM
OVCAR-3 ovarian
  GI50: > 100 µM
  TGI: > 100 µM
NCI-H226 lung
  GI50: > 100 µM
  TGI: > 100 µM
HCT-15 colon
  GI50: > 100 µM
  TGI: > 100 µM
OVCAR-8 ovarian
  GI50: > 100 µM
  TGI: > 100 µM
SN12C renal
  GI50: > 100 µM
  TGI: > 100 µM
SNB-75 CNS
  GI50: > 100 µM
  TGI: > 100 µM
EKVX NSCLC
  GI50: > 100 µM
  TGI: > 100 µM
ACHN renal
  GI50: > 100 µM
  TGI: > 100 µM
SK-MEL-2 melanoma
  GI50: > 100 µM
  TGI: > 100 µM
SF-539 CNS
  GI50: > 100 µM
  TGI: > 100 µM
RPMI-8226 leukemia
  GI50: > 100 µM
  TGI: > 100 µM
OVCAR-5 ovarian
  GI50: > 100 µM
  TGI: > 100 µM
HCT-116 colon
  GI50: > 100 µM
  TGI: > 100 µM
KM12 colon
  GI50: > 100 µM
  TGI: > 100 µM
SK-MEL-5 melanoma
  GI50: > 100 µM
  TGI: > 100 µM
UACC-257 melanoma
  GI50: > 100 µM
  TGI: > 100 µM
M14 melanoma
  GI50: > 100 µM
  TGI: > 100 µM
A549 NSCLC
  GI50: > 100 µM
  TGI: > 100 µM
MALME-3M melanoma
  GI50: > 100 µM
  TGI: > 100 µM
COLO 205 colon
  GI50: > 100 µM
  TGI: > 100 µM
U251 CNS
  GI50: > 100 µM
  TGI: > 100 µM
TK-10 renal
  GI50: > 100 µM
  TGI: > 100 µM
HT29 colon
  GI50: > 100 µM
  TGI: > 100 µM
CAKI-1 renal
  GI50: > 100 µM
  TGI: > 100 µM
NCI-H522 lung
  GI50: > 100 µM
  TGI: > 100 µM
HCC-2998 colon
  GI50: > 100 µM
  TGI: > 100 µM
SK-MEL-28 melanoma
  GI50: > 100 µM
  TGI: > 100 µM
HOP-92 NSCLC
  GI50: > 100 µM
  TGI: > 100 µM
SF-268 CNS
  GI50: > 100 µM
  TGI: > 100 µM
SNB-19 CNS
  GI50: > 100 µM
  TGI: > 100 µM
